We go through one molecule from patent US10435388B2, “Selective inhibitors of clinically important mutants of the EGFR tyrosine kinase” (CS PHARMATECH LIMITED, priority 2016, dated 2019).

Assay [1] deals with LoVo cells (unmutated EGFR wild type). Nature of the assay: LoVo growth inhibition assay (cell proliferation), Method A. The assay is classed as cell-based. Conditions: cellular proliferation, 72 h, CellTiter-Glo (Table 1), read-out: LoVo IC50 (nM) WT. The method, then:
Cell Proliferation Assays—Method A
LoVo Growth Inhibition Assay (Cell Proliferation)
The rest of the procedure was carried out in the same manner as described for the H1975 cells.
In general terms: Cellular ATP, detected with luciferase, serves as a proxy for viable cell number.

In assay [2] the test system is PC9 cells (EGFR d746-750 single mutant). Kind of assay: PC-9 growth inhibition assay (cell proliferation), Method A. It counts as cell-based, human. Conditions: cellular proliferation, PC9 cells, 72 h, CellTiter-Glo (Table 1); read-out: PC9 IC50 (nM) SM.
Assay [3] deals with NCI-H1975 cells (EGFR L858R/T790 double mutant). Kind of assay: H1975 inhibition assay (cell proliferation), Method A. It counts as cell-based. The note with it: cellular proliferation, NCI-H1975 cells, 72 h, CellTiter-Glo (Table 1); read-out: NCI-H1975 IC50 (nM) DM.
Assay [4] has as its system p-EGFR in H1975 cells (L858R/T790M double mutant EGFR). The note with it: read-out: H1975 IC50; cellular EGFR autophosphorylation, 2 h treatment, ELISA. Background: ELISA stands for enzyme-linked immunosorbent assay.
Method: Cellular EGFR Autophosphorylation Assays.
H1975 cells were cryopreserved in liquid nitrogen. […] Remove the vial from liquid nitrogen and thaw rapidly by placing at 37° C. in a water bath with gentle agitation for 1-2 minutes and then decontaminated by wiping with 70% ethanol before opening in a Class II biological safety cabinet. Transfer the vial contents drop-wise into 10 mL of cell culture medium in a sterile 15 mL conical tube. Then centrifuged the tube at 200× g for 5 minutes and aspirate the supernatant. Re-suspend the cell pellet with 1 mL of fresh cell culture medium and transfer it in to the T75 flask containing cell culture medium.
To passage H1975 cells, firstly, the adherent cells were rinsed with Trypsin/EDTA. Then add Trypsin/EDTA (3 mL for a T75 flask) into the flask and swirl to ensure the cells coated with trypsin evenly. Then incubate the flasks at 37° C. until the cells detach. Add equal volume of cell culture medium to stop the reaction. Collect the detached cells and centrifuged at 200× g for 5 minutes followed by re-suspended in fresh culture medium. Then, the cells were transferred into a new T75 flask containing cell culture medium. Cells were sub-cultured three times per week at a ratio of 1:4 in culture medium.
Harvest cells from flask into cell culture medium and the cell numbers counted using Automated Cell Counter (Thermo Fisher Scientific, Countess™). Dilute the cells into 250,000 cells/mL with culture medium and add 40 μL of cell suspension into each well of 384-well cell culture plate as designated. The final concentration was 10,000 cells/well. The plates were covered with lid and placed in 37° C. 5% CO2 incubator overnight for cell attachment.
On the second day, test compounds were dissolved in DMSO at 10 mM. […] The same volume of DMSO was adopted as high control.
Place the plate back to 37° C. 5% CO2 incubator for 2 hours. Replace the medium of each well with ice-cold HBSS. Then remove the HBSS, add 30 μL cell lysis buffer into each well and shake the plates for 30 mins on a plate shaker. Centrifuge for 5 min at 1,000 rpm to remove bubbles and transfer 25 uL of the lysate supernatant for p-EGFR assay by using a commercial ELISA kit (R&D, DYC1095B-5).
For estimation of IC50, the absorption readout are transformed to % relative activity by applying the following equation
[formula] The IC50 was then calculated by fitting in XLFit (IDBS, Guildford, Surrey) to a four parameters logistic curve.
Assay [5] relates to p-EGFR in PC9 cells (Exon 19 deletion EGFR). Nature of the assay: Exon19 deletion EGFR (activating single mutant) PC-9 cellular autophosphorylation assay. It counts as cell-based, human. The note with it: 2 h treatment, ELISA.
Assay [6] deals with EGFR_T790M/L858R (Homo sapiens, UniProt P00533, L858R/T790M). Kind of assay: Enzyme assay, IC50 for double-mutant EGFR (EGFR_T790M/L858R) (Caliper). It counts as biochemical. Conditions: enzyme phosphorylation assay; read-out: EGFR_L858R/T790 IC50.
Sequence of EGFR_T790M/L858R (P00533 25-1210 T790M/L858R): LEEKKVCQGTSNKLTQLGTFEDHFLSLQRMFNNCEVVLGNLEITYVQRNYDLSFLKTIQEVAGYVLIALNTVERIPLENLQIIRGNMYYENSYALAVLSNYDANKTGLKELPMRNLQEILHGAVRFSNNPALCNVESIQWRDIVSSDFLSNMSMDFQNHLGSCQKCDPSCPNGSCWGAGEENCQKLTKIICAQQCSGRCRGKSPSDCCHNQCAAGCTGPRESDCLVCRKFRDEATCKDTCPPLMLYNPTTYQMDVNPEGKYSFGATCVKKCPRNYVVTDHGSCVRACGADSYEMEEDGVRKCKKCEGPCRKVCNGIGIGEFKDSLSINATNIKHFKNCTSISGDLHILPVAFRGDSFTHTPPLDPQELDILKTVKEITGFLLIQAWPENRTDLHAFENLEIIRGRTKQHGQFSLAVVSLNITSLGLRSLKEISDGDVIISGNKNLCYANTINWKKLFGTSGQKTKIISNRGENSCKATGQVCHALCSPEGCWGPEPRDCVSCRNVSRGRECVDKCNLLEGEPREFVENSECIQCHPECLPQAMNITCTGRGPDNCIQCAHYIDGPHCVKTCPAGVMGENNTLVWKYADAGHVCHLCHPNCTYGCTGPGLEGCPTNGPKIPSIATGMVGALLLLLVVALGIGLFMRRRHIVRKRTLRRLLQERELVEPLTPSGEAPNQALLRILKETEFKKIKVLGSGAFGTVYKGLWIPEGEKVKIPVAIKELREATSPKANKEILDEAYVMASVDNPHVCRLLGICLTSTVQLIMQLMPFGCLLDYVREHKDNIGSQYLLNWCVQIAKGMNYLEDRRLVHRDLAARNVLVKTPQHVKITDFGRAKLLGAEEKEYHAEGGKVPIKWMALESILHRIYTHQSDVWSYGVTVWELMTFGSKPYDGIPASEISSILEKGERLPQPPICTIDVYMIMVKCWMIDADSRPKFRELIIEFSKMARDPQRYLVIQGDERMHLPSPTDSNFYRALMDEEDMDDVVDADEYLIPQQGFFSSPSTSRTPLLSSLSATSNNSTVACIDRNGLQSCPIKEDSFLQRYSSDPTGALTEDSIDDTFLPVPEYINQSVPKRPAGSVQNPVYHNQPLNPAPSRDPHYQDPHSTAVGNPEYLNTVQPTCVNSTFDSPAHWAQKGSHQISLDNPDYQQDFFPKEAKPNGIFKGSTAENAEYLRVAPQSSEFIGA

Several values for one entry are separate records, joined by “and”; a condition that tells them apart may be missing. Equal entries are not always repeated.

As for `C=CC(=O)Nc1cc(Nc2nccc(-c3c[nH]c4ccccc34)n2)c(OC)cc1N(C)CCN(C)C` [AZD-5104], the IC50 in assay [1] is 3250 nM; in assay [2], 3.4 nM; in assay [3], 2.2 nM; in assay [4] it was 1.84 nM and 3.58 nM; in assay [5], 2.91 nM and 2.4 nM; in assay [6] it was 1.5 nM.
